This note sets out measurements from PubChem BioAssay (NCI).

SMILES strings stand for the structures. Several values for one entry are separate records, joined by “and”; a condition that tells them apart may be missing. Identical values can stand only once.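 These data come from cells grown in 96-well plates and exposed to compound for 48 hours at five concentrations. GI50 is the concentration that inhibits growth by half. Definition used: TGI = concentration required for complete inhibition of growth.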 Bounds are passed on as bounds.

Holding throughout (assay): NCI-60 cell line screen, 48 h
Experiment [1] deals with T-47D breast.
Experiment [2] concerns OVCAR-5 ovarian.
Experiment [3] relates to RPMI-8226 leukemia.
In experiment [4] the test system is SW-620 colon.
Experiment [5] concerns NCI/ADR-RES ovarian.
Experiment [6] has as its system DU-145 prostate.
Experiment [7] relates to SK-MEL-2 melanoma.
Experiment [8] concerns SF-539 CNS.
The subject of experiment [9] is HT29 colon.
Experiment [10] deals with HOP-62 NSCLC.

On to `CCCCCCCCCCCCCC(=O)O[C@H]1CC[C@H](NC(=O)[C@H](OC)[C@H](O)[C@@H](O)[C@H](O)/C=C/C(C)C)C(=O)NC1`, for which the TGI in [1] was above 100 µM; in [2], 51.2 µM and > 100 µM; in experiment [3], 11.6 µM and 10.2 µM; in experiment [4] it was 11.2 µM and 12.8 µM; in experiment [5] it was 51.2 µM and 26.3 µM; in experiment [6], 34.6 µM and > 100 µM. Besides, the TGI in experiment [7] was 51.2 µM and 9.49 µM; in [8], 22 µM and 17.6 µM; in [9], 7.29 µM and 12.7 µM; in experiment [10] it was 51.2 µM and 34 µM. In addition, the results for the GI50 in [5], in experiment [6] and in experiment [10] were 3.58 µM, 0.00512 µM and below 0.001 µM, respectively.

For `COc1cc(-c2nc(Nc3nc4ccccc4[nH]3)nc(N)c2C#N)cc(OC)c1OC`, the GI50 was 4.27 µM in experiment [1]; 27.8 µM in [2]; 12.5 µM in experiment [3]; 1.85 µM in experiment [4]; above 100 µM in experiment [5]; 10.9 µM in experiment [6]. Further, the GI50 in experiment [7] is 2.69 µM; in [8] it was 10.7 µM; in experiment [9], 0.877 µM; in experiment [10], 5.04 µM. Further, the TGI in [1] is 52.8 µM; in experiment [2] it was above 86.4 µM; in [3], above 100 µM; in [4], 26.1 µM; in [5] it was above 100 µM; in experiment [6] it was 35.6 µM. The TGI in [7] worked out at 34 µM; in experiment [8], 36.2 µM; in experiment [9], 24.1 µM; in experiment [10] it was 53.2 µM.

With `COC(=O)Nc1nc2ccc(Oc3ccc(NC(=O)Nc4cccc(C(=O)O)c4)cc3)cc2[nH]1`, the GI50 was above 14.2 µM in [1]; 12 µM in [2]; 8.03 µM in [3]; 7.43 µM in experiment [4]; 6.13 µM in [5]; 8.07 µM in experiment [6]. The GI50 in experiment [7] is 9.24 µM; in experiment [8], 4.95 µM; in experiment [9], 7.35 µM; in experiment [10] it was 7.09 µM. Moreover, the TGI in experiment [1] is above 25 µM; in experiment [2], above 25 µM; in [3] it was above 25 µM; in experiment [4], above 25 µM; in experiment [5] it was above 17.4 µM; in experiment [6] it was above 25 µM. The TGI in [7] is above 25 µM; in experiment [8] it was above 20.9 µM; in [9] it was above 25 µM; in experiment [10], above 22 µM.

Turning to `Cn1cc(-c2nc(-c3c[nH]c4ncccc34)cs2)c2cc(F)ccc21`, the GI50 in experiment [1] is 0.0443 µM; in experiment [2], 1.25 µM; in [3], 2.81 µM; in experiment [4], 2.67 µM; in experiment [5] it was 2.47 µM; in experiment [6] it was 3.97 µM. The GI50 is 3.81 µM in experiment [7], 3.8 µM in [8], 2.1 µM in experiment [9] and 4.11 µM in experiment [10]. Also, the TGI was found to be 4.43 µM in experiment [1]; 6.63 µM in experiment [2]; 48.3 µM in experiment [3]; 9.73 µM in experiment [4]; 7.66 µM in experiment [5]; 15.2 µM in experiment [6]. For the same compound, the TGI came out at 11.1 µM in experiment [7], 15.3 µM in experiment [8], 4.53 µM in experiment [9] and 16.5 µM in experiment [10].

Regarding `O=C1NN(c2ccc(C(=O)O)cc2)C(=O)/C1=C\c1ccc([N+](=O)[O-])o1`, the GI50 in experiment [1] was 21.4 µM; in experiment [2] it was above 100 µM; in experiment [3] it was 30.6 µM; in experiment [4], 20 µM; in experiment [5] it was 89.3 µM; in experiment [6] it was 85.6 µM. For the same compound, the GI50 in [7] is 83.1 µM; in experiment [8], above 100 µM; in [9], 18.6 µM; in experiment [10], above 100 µM. Besides, the TGI in [1] was 50 µM; in [2], above 100 µM; in experiment [3], 83.8 µM; in experiment [4] it was 47.3 µM; in [5], above 100 µM; in experiment [6] it was above 100 µM. Further, the TGI was above 100 µM in experiment [7], above 100 µM in [8], 35.8 µM in [9] and above 100 µM in experiment [10].

For `COc1cc(O)c2c(O)c3c(c4c2c1[C@]1(C4)C(C)=CCCC1(C)C)[C@H](O)[C@@]1(O)CC(=O)C(C(N)=O)=C(O)[C@@]1(O)C3=O`, the TGI in experiment [1] came out at 1.81 µM; in experiment [2] it was 1.23 µM; in [3], 1.18 µM; in experiment [4], 1.2 µM; in experiment [5], 1.5 µM; in [6] it was 2.43 µM. Besides, the TGI in [7] is 0.695 µM; in experiment [8] it was 0.965 µM; in experiment [9], 1.08 µM; in [10], 1.51 µM.

For the compound `Cn1cncc1[C@@](N)(c1ccc(Cl)cc1)c1ccc2c(c1)c(-c1cccc(Cl)c1)cc(=O)n2C`, the GI50 in experiment [1] was 2.57 µM; in experiment [2], 5.59 µM; in experiment [3], 1.58 µM; in experiment [4] it was 1.82 µM; in experiment [5], 2.54 µM; in [6], 1.81 µM. The GI50 in experiment [7] is 1.39 µM; in experiment [8], 2.81 µM; in experiment [9], 1.27 µM; in experiment [10], 5.51 µM. Moreover, the TGI was found to be 17.2 µM in experiment [1]; 19.3 µM in experiment [2]; 9.79 µM in [3]; 12.7 µM in experiment [4]; 12 µM in [5]; 3.66 µM in [6]. The TGI in [7] came to 4.99 µM; in [8], 9.47 µM; in [9], 6.24 µM; in experiment [10] it was 18.4 µM.

Consider `CC1=NN(c2ccccc2)C(=O)C1N=Nc1ccc([As](=O)(O)O)c(O)c1` (stereo not drawn), for which the TGI in [1], in experiment [2], in experiment [3], in experiment [4], in experiment [5] and in experiment [6] was above 100 µM in each case. Besides, the TGI in experiment [7], in [8], in experiment [9] and in [10] was above 100 µM each time.
